Here are results for eight compounds from patent US11534441B2, “MAP4K1 inhibitors” (Blueprint Medicines Corporation, priority 2020, dated 2022).

In assay [1] the target is MAP4K1 (HPK1) (Homo sapiens (Human), UniProt Q92918). Briefly: MAP4K1 (HPK1) biochemical enzymatic activity, electrophoretic mobility shift (EZReader 2), ATP at APPKM (26 μM). The essentials: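 Phosphorylated and unphosphorylated peptide were separated electrophoretically, and the product/substrate peak ratio served as readout. Reactions held 0.1-15 nM HPK1, 1.5 μM fluorescent peptide and 26 μM ATP (apparent Km) in pH 7.5 HEPES buffer with MgCl2 and DTT. Compounds were tested as 4-fold, 10-point dilutions in 1% DMSO for 60-180 min at 25° C, then quenched with EDTA.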
MAP4K1 (HPK1), sequence (Q92918 whole entry): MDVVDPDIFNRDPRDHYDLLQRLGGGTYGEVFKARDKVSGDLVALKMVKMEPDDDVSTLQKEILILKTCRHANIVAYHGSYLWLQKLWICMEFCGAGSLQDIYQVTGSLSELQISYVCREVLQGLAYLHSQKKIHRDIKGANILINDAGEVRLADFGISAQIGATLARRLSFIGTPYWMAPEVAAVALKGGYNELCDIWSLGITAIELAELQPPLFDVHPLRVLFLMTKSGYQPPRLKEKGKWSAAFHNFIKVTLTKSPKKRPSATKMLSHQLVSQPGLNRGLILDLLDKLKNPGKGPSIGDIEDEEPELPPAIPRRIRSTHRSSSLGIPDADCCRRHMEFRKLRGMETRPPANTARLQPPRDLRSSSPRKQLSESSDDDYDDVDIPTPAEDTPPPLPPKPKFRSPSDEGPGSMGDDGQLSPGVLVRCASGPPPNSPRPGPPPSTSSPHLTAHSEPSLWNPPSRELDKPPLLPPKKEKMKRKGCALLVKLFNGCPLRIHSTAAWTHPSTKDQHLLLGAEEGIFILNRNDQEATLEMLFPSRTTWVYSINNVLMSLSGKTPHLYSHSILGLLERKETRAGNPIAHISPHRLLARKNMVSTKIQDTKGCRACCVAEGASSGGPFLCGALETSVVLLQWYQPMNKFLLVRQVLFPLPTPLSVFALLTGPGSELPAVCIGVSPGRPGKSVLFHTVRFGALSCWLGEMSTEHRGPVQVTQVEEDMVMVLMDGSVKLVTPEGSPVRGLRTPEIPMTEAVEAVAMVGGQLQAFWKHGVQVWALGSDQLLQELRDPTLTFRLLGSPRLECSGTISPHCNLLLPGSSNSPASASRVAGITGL
A general note: In EMSA bound probe runs differently from free probe, usually more slowly.

Assay [2] has as its system expanded CD3+ T cells. Put plainly: T cell enhancement of cytokines: IL2 measurement (HTRF) in expanded CD3+ T cells stimulated with anti-CD3/anti-CD28. Particulars: IL-2 measurement. The class given is cell-based, human. In a few lines:
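Healthy-donor T cells (95-98% CD3+) expanded 10-14 days with IL2 and CD3/CD28 beads, then cryopreserved. 100K cells/well in X-VIVO 10 serum-free medium were stimulated with plate-bound anti-CD3 plus soluble anti-CD28 with compound at various concentrations for 24 h. Secreted IL2 measured by HTRF after 24 h antibody incubation.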

Setting [3] is: Homo sapiens, T-cell, class designation.
Setting [4] is: Homo sapiens, T-cell, numeric value.

For orientation: IC50 means the concentration at which inhibition is half-maximal. Usually EC50 stands for the concentration giving half of the maximal effect. On to `CC1(C)Cc2nc(Nc3cc4c(C(C)(C)NC5COC5)cnc(OC5CC5)c4cn3)ccc2C(=O)O1` [Compound 183], for which the IC50 in assay [1] (class designation) was over 10 nM; in assay [1] (numeric value), 26.4 nM. For the same compound, the EC50 was under 35 nM in assay [2] (setting [3]) and 3.1 nM in assay [2] (setting [4]).

For `COC[C@@](C)(N)c1cnc(OC)c2cnc(Nc3ccc4c(n3)[C@@H](C)[C@H](C)OC4=O)cc12` [Compound 188], the IC50 in assay [1] (class designation) is under 0.3 nM; in assay [1] (numeric value), 0.09 nM. For the same compound, the EC50 is under 35 nM in assay [2] (class designation) and 6.8 nM in assay [2] (numeric value).

With `COC[C@@](C)(N)c1cnc(OC2CC2)c2cnc(Nc3ccc4c(n3)[C@@H](C)C(C)(C)OC4=O)cc12` [Compound 189], the figures for the IC50 in assay [1] (class designation) and in assay [1] (numeric value) were under 0.3 nM and 0.16 nM, respectively. Besides, the figures for the EC50 in assay [2] (class designation) and in assay [2] (numeric value) were 45.1 to 55 nM and 45.8 nM, respectively.

As for `CC[C@](C)(N)c1cnc(OC2CC2)c2cnc(Nc3ccc4c(n3)C3(CC3)C(C)(C)OC4=O)cc12` [Compound 196], the IC50 in assay [1] (class designation) is under 0.3 nM; in assay [1] (numeric value), 0.1 nM. The EC50 is under 35 nM in assay [2] (class designation) and 19 nM in assay [2] (numeric value).

Turning to `CC[C@@H](N)c1cnc(OC)c2cnc(Nc3ccc4c(n3)[C@@H](C)C(C)(C)OC4=O)cc12` [Compound 204], the figures for the IC50 in assay [1] (class designation) and in assay [1] (numeric value) were under 0.3 nM and 0.22 nM, respectively. In addition, the EC50 in assay [2] (class designation) was under 35 nM; in assay [2] (numeric value), 29.8 nM.

Consider `COC[C@@](C)(N)c1cnc(C)c2cnc(Nc3ccc4c(n3)[C@@H](C)[C@H](C)OC4=O)cc12` [Compound 205], for which the IC50 in assay [1] (class designation) is 0.31 to 1 nM; in assay [1] (numeric value), 0.35 nM. The 50% effective concentration (EC50) in assay [2] (setting [3]) was over 55 nM; in assay [2] (setting [4]) it was 113 nM.

As for `COC[C@@H](N)c1cnc(OC)c2cnc(Nc3ccc4c(n3)[C@@H](C)C(C)(C)OC4=O)cc12` [Compound 208], the IC50 in assay [1] (class designation) is 0.31 to 1 nM; in assay [1] (numeric value), 0.7 nM. In addition, the EC50 in assay [2] (class designation) was over 55 nM; in assay [2] (numeric value), 96 nM.

As for `CC[C@@H](N)c1cnc(C)c2cnc(Nc3ccc4c(n3)[C@@H](C)C(C)(C)OC4=O)cc12` [Compound 210], the results for the IC50 in assay [1] (class designation) and in assay [1] (numeric value) were under 0.3 nM and 0.23 nM, respectively. Besides, the EC50 is over 55 nM in assay [2] (class designation) and 177 nM in assay [2] (numeric value).
